The NIST ThermoML archive (doi:10.1007/s10765-014-1828-5)
± gives the expanded uncertainty stated by the source.

Conditions: 101.33 kPa, Liquid, Oscillating crucible method

[Ba+2].[F-].[F-] [barium difluoride]
Conditions	viscosity [mPa·s]
1620.2 K	3.56 ± 0.11
1642.3 K	3.46 ± 0.11
1657.3 K	3.309 ± 0.1
1682.7 K	3.165 ± 0.098
1697.5 K	2.995 ± 0.093
1722.7 K	2.899 ± 0.091
1723.2 K	2.856 ± 0.09
1738.8 K	2.766 ± 0.086
1763.4 K	2.665 ± 0.083
1779.4 K	2.57 ± 0.08
1802.5 K	2.461 ± 0.077
1819.5 K	2.368 ± 0.074
1842.3 K	2.3 ± 0.072
1860.1 K	2.237 ± 0.071
1880.4 K	2.172 ± 0.069

[Ca+2].[F-].[F-] [calcium fluoride]
Conditions	viscosity [mPa·s]
1703.3 K	2.932 ± 0.098
1703.6 K	2.878 ± 0.096
1713.5 K	2.82 ± 0.088
1722.7 K	2.77 ± 0.086
1732.2 K	2.735 ± 0.085
1742.2 K	2.657 ± 0.083
1751.6 K	2.623 ± 0.082
1760.6 K	2.562 ± 0.08
1761.2 K	2.586 ± 0.081
1763.4 K	2.571 ± 0.08
1770.5 K	2.542 ± 0.079
1780.9 K	2.476 ± 0.078
1790.5 K	2.432 ± 0.076
1800.8 K	2.408 ± 0.076
1807.3 K	2.371 ± 0.074
1820.5 K	2.34 ± 0.074
1832.8 K	2.265 ± 0.071
1839.9 K	2.268 ± 0.071
1847.7 K	2.223 ± 0.07
1858.7 K	2.185 ± 0.069
1868.1 K	2.149 ± 0.068

[F-].[F-].[Mg+2] [magnesium difluoride]
Conditions	viscosity [mPa·s]
1514.7 K	2.416 ± 0.076
1534.7 K	2.25 ± 0.071
1554.7 K	2.257 ± 0.071
1574.1 K	2.09 ± 0.066
1613.7 K	2.081 ± 0.066
1633.2 K	2.036 ± 0.065
1653.4 K	1.98 ± 0.063
1673.9 K	1.895 ± 0.061
1690.6 K	1.784 ± 0.057
1716.7 K	1.763 ± 0.057
1731 K	1.758 ± 0.057
1751 K	1.68 ± 0.054
1773 K	1.632 ± 0.053
1792.8 K	1.588 ± 0.052
1814.2 K	1.602 ± 0.052
1831.8 K	1.552 ± 0.051
1853.2 K	1.448 ± 0.048

[F-].[F-].[Sr+2] [strontium fluoride]
Conditions	viscosity [mPa·s]
1743.4 K	3.023 ± 0.093
1749.8 K	2.953 ± 0.092
1750.4 K	2.972 ± 0.092
1762.4 K	2.915 ± 0.09
1769 K	2.866 ± 0.089
1780.9 K	2.804 ± 0.087
1788.6 K	2.729 ± 0.085
1796.9 K	2.698 ± 0.084
1810.3 K	2.628 ± 0.082
1817.9 K	2.584 ± 0.081
1826.5 K	2.561 ± 0.08
1833.2 K	2.512 ± 0.079
1846.4 K	2.449 ± 0.077
1852.2 K	2.401 ± 0.075
1854.3 K	2.405 ± 0.075
1864.6 K	2.374 ± 0.075
